Test results as given in patent publication US20150374851A1, “AAV VECTORS EXPRESSING SEC10 FOR TREATING KIDNEY DAMAGE” (The Trustees of the University of Pennsylvania, priority 2009, published 2015).

Assays:
[1] = test system: phosphorylated (active) ERK; conditions: 10 μM U0126 for 30 min, then 1 mM H2O2 for 30 min; Transwell filter
Experimental: Normal and hSec10-overexpressing (Sec10) MDCK cells were grown on transwell filter culture dish at confluence, incubated in either vehicle or 10 μM of U0126 (an inhibitor of ERK activation) for 30 min, and then treated with 1 mM of H2O2 for 30 min. After 30 min of incubation in U0126 cells were harvested and used to detect the levels of phosphorylated ERK. Cells were lysed in SDS buffer.
Briefly, cells or kidneys were harvested in the RIPA (Sigma Co.) containing proteinase inhibitor cocktail (Sigma. Co) and phosphatase inhibitor cocktail (Sigma. Co) and centrifuged 14,000 rpm for 20 min at 4° C. Supernatants, then, were collected and protein concentration was determined using BCA protein assay kit. Protein samples were mix SDS-sample buffer and denatured by 5 min of boiling at 95° C. The protein samples were separated on 4-12% SDS-PAGE gels and then transferred to an Immobilon membrane (Millipore Corp., Bedford, Mass.). The membranes were blocked by 5% of non-fat dry milk in PBS containing of 0.1% Tween-20 (PBS-T), and incubated in anti-phospho-ERK (1:1000, Cell signaling), -total-ERK (1:5000, Cell signaling), and -Sec10 (1:500; Lipschutz lab.) antibodies overnight at 4° C. After washing with 3 times with 0.1% PBS-T, the membranes were incubated with horseradish peroxidase-conjugated secondary antibodies for 1 h at RT. […]

[2] = test system: Sec10-overexpressing MDCK cells
Experimental: (§1) Type II Madin-Darby canine kidney (MDCK) cells (Control cells) were obtained from Dr. K. Mostov (UCSF, San Francisco, Calif.). MDCK type II cells were overexpressing hSec10 (Sec10-overexpressing cells). See, e.g, Lipschutz et al, 2000 cited above. Cells were grown in modified Eagle's minimal essential medium (MEM) containing Earl's balanced salt solution and glutamine supplemented with 5% fetal calf serum, 100 U/ml penicillin, and 100 μg/m streptomycin on the plastic culture dishes. Some cells were grown on the 24-mm Transwell 0.45 μm polycarbonate filter units coated with collagen (Corning Life Sciences, Lowell, Mass.). Pore size on all filters was 0.4 μm. Cell monolayers were used for experiments after 7 d of culture with daily changes in medium. Cells were plated as single cells in a three-dimensional (3D) type I collagen gel. To culture collagen matrix, cells grown on plastic culture dishes were harvested using trypsin-EDTA, and suspended cells on the type I collagen gel and then seeded in chamber slide for 14 days and then treated with H2O2 (Sigma-Aldrich, Co.).
(§2) Control cells and Sec10-overexpressing cells were grown on the Transwell filter for 7 days after seeding. TER was measured using epithelial volt-ohmmeter (Model EVOM, World Precision Instruments). TER values were presented as the measured resistance in ohm multiplied by the surface area of the Transwell filter.
(§3) 1) control and Sec10-overexpressing cells were treated with U0126 alone for 30 min, U0126 plus H2O2 for 30 min, and then U0126 alone for 24 hrs (FIG. 5A), and
(§4) 2) control and Sec10-overexpressing cells were treated with H2O2 for 30 min, and U0126 alone for 24 hrs (FIG. 5B).

control MDCK cells = test system: control MDCK cells
Experimental: as §1, §2, §3, §4

normal MDCK cells = conditions: U0126 30 min, then 1 mM H2O2 plus U0126 30 min
Experimental: (§5) Normal and hSec10-overexpressing (Sec10) MDCK cells were grown on collagen-matrix for 12-14 days as described herein and then treated with 1 mM of hydrogen peroxide for 30 min. Some cells were treated with 10 μM U0126 30 min before the treatment of hydrogen peroxide. After the treatment cells were fixed with 4% paraformaldehyde and then stained with F-actin phalloidin-conjugated cy3. Numbers of damaged cysts were counted using fluorescence microscope.
as §1, with “To culture collagen matrix, cells grown on plastic culture dishes were harvested using trypsin-EDTA, and suspended cells on the type I collagen gel and then seeded in chamber slide for 14 days and then treated with H2O2 (Sigma-Aldrich, Co.).” left out

[3] = test system: Sec10-overexpressing MDCK cells; conditions: U0126 30 min, then 1 mM H2O2 plus U0126 30 min
Experimental: as §5
as §1, with “To culture collagen matrix, cells grown on plastic culture dishes were harvested using trypsin-EDTA, and suspended cells on the type I collagen gel and then seeded in chamber slide for 14 days and then treated with H2O2 (Sigma-Aldrich, Co.).” left out

## N#CC(=C(/N)Sc1ccccc1N)/C(C#N)=C(\N)Sc1ccccc1N [U0126]
[1]
  ERK phosphorylation caused by H2O2 treatment: blocked ERK phosphorylation
[2]
  TER relative to TER in H2O2 alone: about 80%
[2]; Sec10-overexpressing cells, 24 hrs after removal of H2O2
  TER versus U0126-nontreated cells: significantly lower
[2]; Sec10-overexpressing cells, U0126 pretreatment 30 min, 1 mM H2O2
  H2O2-induced decrease of TER: accelerated H2O2-induced decrease of TER
Control MDCK cells
  TER relative to TER in H2O2 alone: about 83%
Control MDCK cells; control cells, 24 hrs after removal of H2O2
  TER recovery versus non-U0126 treated cells: not significantly different
Control MDCK cells; control cells, U0126 pretreatment 30 min, 1 mM H2O2
  H2O2-induced decrease of TER: accelerated H2O2-induced decrease of TER
Normal MDCK cells
  Numbers of damaged cysts: increased
[3]
  Numbers of damaged cysts: increased
